Data: PMC8667045, “Into Deep Water: Optimizing BCL6 Inhibitors by Growing into a Solvated Pocket” (Journal of Medicinal Chemistry, 2021)
pIC50: −log10 of the molar value. In brackets after ≈: the same amount, converted by molar mass. Several values for one entry are separate records, joined by “and”; a condition that tells them apart may be missing. Equal values may be shown once. Read-outs that look alike come from different tables or passages of the source.

Key:
HPLC solubility assay = type: physicochemical; settings: PBS buffer, PBS pH 7.4, 1% DMSO, room temperature
Description: 3. Supplementary experimental: physicochemical assays […]
3.2 HPLC solubility assay
DMSO. Following shaking of the suspension on a Bohdan Shaker at 500 rpm for 2 hours at room […]
200 µL of the supernatant was transferred to a 2 mL Agilent vial containing 50 µL of DMSO (Sigma […]
detection using an external standard which was prepared by pipetting 10 µL of the same batch of […]
The detail of the HPLC method is as following: chromatographic separation at 30°C is carried out over a 5 minute gradient elution method from 90:10 to 10:90 water:methanol (both modified with 0.1% formic acid) at a flow rate of 1.5 mL/min. Calibration curve is prepared by injecting 0.5, 2.5, and 5 µL of compound external standard.
62.5 µL of compound solubility sample.

BCL6 BTB domain [1] = biological target: T1, BCL6 BTB domain (Homo sapiens, UniProt P41182); test: biochemical; settings: for BCL6 TR-FRET pIC50 mean: mean of n replicates
Description: Supplementary experimental: protein production, purification and crystallography
3C protease cleavage site.
used without cleaving the tag, as a 6His was needed to bind to the anti-6His-Terbium antibody. For
For both plasmid constructs described above, transformed BL21-AI E. coli cells were grown in LB
carried out at 18 °C for 18 hours. Cells were harvested by centrifugation (5500 g for 30 minutes at 4
oC) and stored at -80 °C.
Cells were re-suspended in a buffer composed of 20 mM Tris pH 8, 250 mM NaCl, 1 mM MgCl2, 0.5
Cells were lysed by sonication followed by centrifugation at 21,000 g for 45 minutes at 4 °C. […]
The final protein was assessed for purity
and molar mass by SDS-PAGE and high-resolution mass spectrometry, respectively.
(§1) directly eluted from the HisTrap FF column without HRV-3C treatment, and submitted to Superdex75
gel filtration as described above. […]
2. Supplementary experimental: biological assay conditions
IC50 values were determined using
a sigmoidal four-parameter logistic fit equation.

BCL6 BTB domain [2] = biological target: T1, BCL6 BTB domain; test: Rapid X-ray screen: ligand density in extended pocket of BCL6 BTB domain; parameters: made in house; host or cells: E. coli BL21-AI; settings: crystals soaked with compound
Text: Furthermore, we speculated that these represent better starting points since the substituent can be modified further to derive additional interactions and more completely fill the extended pocket. […] Instead, we just checked for the presence of ligand density and, in particular, for electron density in the extended pocket.
as §1
gel filtration as described above.
NH2. A stock solution of WVIP peptide at 100 mM in 100 % DMSO was added to a 2 mg/mL solution
This mixture was then concentrated to a final
protein concentration of 4 mg/mL using a centrifugal concentrator with a 3 kDa molecular weight
complex plus 1 μL of a crystallisation solution consisting of 1 M K 2HPO4, 0.7 M NaH2PO4, 75 mM
drops, followed by 10-120 minutes incubation. Crystals were then cryo-protected in a solution
composed of the crystallisation reagent supplemented with 30 % ethylene glycol and cryo-cooled in
concentrated to a final protein concentration of 10 mg/mL using a centrifugal concentrator with a 3
kDa molecular weight cut-off. Crystals were grown at 18 °C in hanging drops composed of 1.5 μL of
and 0.80 M Na/K Tartrate, against 300 μL of crystallisation solution.
and compounds were soaked as described above for the other construct. Crystals were then cryo-
protected in a solution composed of the crystallisation reagent supplemented with 30 % ethylene
glycol and cryo-cooled in liquid nitrogen.
1.5 Crystallographic data collection, processing and refinement
X-ray data were collected at Diamond Light Source, Harwell campus, Oxfordshire, UK, on beamlines
Research, London, UK, on a Rigaku FRX-AFC11-VariMax Cu-VHF-Pilatus300K. Crystals obtained with […]

[3] = PAMPA passive permeability pH 7.4; settings: for PAMPA7.4: pH 7.4, passive permeability Pe
NMR solubility assay = type: physicochemical; settings: HEPES buffer, 5% DMSO, room temperature
Description: 3. Supplementary experimental: physicochemical assays
The plate was then sealed and incubated at room temperature for 20 hours, without shaking. The plate was centrifuged again for 1 minute at […]
spectrometer equipped with a 5 mm TCI-CryoProbe. […]
deuterated solvent. […] All NMR data were acquired at the […]
contained 16k time-domain data points. Relaxation delay was set to 20 sec. […]

Measured logD7.4 = type: physicochemical; settings: pH 7.4
[4] = TR-FRET IC50 individual replicates, single replicates, italic values used 10nM BCL6, otherwise 1nM BCL6
[5] = read-out: BCL6 TR-FRET Geo Mean IC50, geometric mean of n replicates, supplement
[6] = read-out: TR-FRET IC50, tables and figures
[7] = read-out: TR-FRET IC50 individual replicates, single replicates, italic values used 10nM BCL6, otherwise 1nM BCL6

SMILES	solubility at 2 h (HPLC solubility assay)	pIC50 (BCL6 BTB domain [1]; [4])	BCL6 TR-FRET pIC50 mean (BCL6 BTB domain [1])	pIC50 (BCL6 BTB domain [1]; [5])	pIC50 (BCL6 BTB domain [1]; [6])	pIC50 (BCL6 BTB domain [1]; [7])	Ligand density in extended pocket (BCL6 BTB domain [2])	Papp ([3]; PAMPA, pH 7.4)	PAMPA7.4 [3]	solubility at 20 h (NMR solubility assay)	logD (Measured logD7.4)
Cn1c(=O)n(C)c2cc(Nc3ccnc(Cl)c3C#N)ccc21 [Compound 1]	16 µM (≈ 5.02 µg/mL)										
Cn1c(=O)ccc2cc(Nc3ccnc(Cl)c3C#N)ccc21 [Compound 2, 2-Chloro-4-((1-methyl-2-oxo-1,2-dihydroquinolin-6-yl)amino)nicotinonitrile]	12 µM (≈ 3.73 µg/mL)	5.64 and 5.37 and 5.39 and 5.86	5.57 and 5.565	5.57	5.57						
CN(C)c1cc(=O)[nH]c2ccc(Nc3ccnc(Cl)c3C#N)cc12 [Compound 8a, 2-Chloro-4-((4-(dimethylamino)-2-oxo-1,2-dihydroquinolin-6-yl)amino)nicotinonitrile]		5.15 and 5.35	5.25 and 5.254	5.25	5.25	5.26	No				
N#Cc1c(Nc2ccc3[nH]c(=O)cc(N4CCCCC4)c3c2)ccnc1Cl [Compound 8b, 2-Chloro-4-((2-oxo-4-(piperidin-1-yl)-1,2-dihydroquinolin-6-yl)amino)nicotinonitrile]		5.80 and 5.91 and 6.04 and 6.27 and 5.63	5.93 and 5.929	5.93	5.93		No				
CN1CCN(c2cc(=O)[nH]c3ccc(Nc4ccnc(Cl)c4C#N)cc23)CC1 [Compound 8c, 2-Chloro-4-((4-(4-methylpiperazin-1-yl)-2-oxo-1,2-dihydroquinolin-6-yl)amino)nicotinonitrile]		5.24 and 5.91 and 5.61 and 5.54	5.58 and 5.578	5.58	5.58	5.59	No				
N#Cc1c(Nc2ccc3[nH]c(=O)cc(N4CCOCC4)c3c2)ccnc1Cl [Compound 8d, 2-Chloro-4-((4-morpholino-2-oxo-1,2-dihydroquinolin-6-yl)amino)nicotinonitrile]		5.58 and 5.59 and 5.83	5.67 and 5.672	5.67	5.67	5.68	No				
Cn1cc(-c2cc(=O)[nH]c3ccc(Nc4ccnc(Cl)c4C#N)cc23)cn1 [Compound 8e, 2-Chloro-4-((4-(1-methyl-1H-pyrazol-4-yl)-2-oxo-1,2-dihydroquinolin-6-yl)amino)nicotinonitrile]		5.82 and 5.66	5.74 and 5.739	5.74	5.74		Yes				
CCNc1cc(=O)[nH]c2ccc(Nc3ccnc(Cl)c3C#N)cc12 [Compound 8f, 2-Chloro-4-((4-(ethylamino)-2-oxo-1,2-dihydroquinolin-6-yl)amino)nicotinonitrile]		5.78 and 6.17 and 5.71 and 5.95 and 5.98 and 5.72	5.883	5.88	5.88		Yes				
CNC(=O)C(C)Nc1cc(=O)[nH]c2ccc(Nc3ccnc(Cl)c3C#N)cc12 (stereo not drawn) [Compound 12a, 2-((6-((2-Chloro-3-cyanopyridin-4-yl)amino)-2-oxo-1,2-dihydroquinolin-4-yl)amino)-N-methylpropanamide]	37 µM (≈ 14.7 µg/mL)	6.21 and 6.31 and 6.24 and 6.29 and 6.18 and 6.33 and 6.34 and 6.30 and 6.13 and 6.32 and 6.19	6.26 and 6.258	6.26	6.26			< 0.2 ×10⁻⁶ cm/s			
CNC(=O)CNc1cc(=O)[nH]c2ccc(Nc3ccnc(Cl)c3C#N)cc12 [Compound 12e, 2-((6-((2-Chloro-3-cyanopyridin-4-yl)amino)-2-oxo-1,2-dihydroquinolin-4-yl)amino)-N-methylacetamide]	35 µM (≈ 13.4 µg/mL)	4.70 and 4.13 and 4.99 and 4.65	4.62 and 4.623	4.62	4.62	4.64					
CC(Nc1cc(=O)n(C)c2ccc(Nc3ccnc(Cl)c3C#N)cc12)c1ncco1 (stereo not drawn) [Compound 13b, 2-Chloro-4-((1-methyl-4-((1-(oxazol-2-yl)ethyl)amino)-2-oxo-1,2-dihydroquinolin-6-yl)amino)nicotinonitrile]	2.8 µM (≈ 1.18 µg/mL)								1.0 x10^-6 cms^-1		
CC(Nc1cc(=O)n(C)c2ccc(Nc3ccnc(Cl)c3C#N)cc12)c1ncccn1 (stereo not drawn) [Compound 13e, 2-Chloro-4-((1-methyl-2-oxo-4-((1-(pyrimidin-2-yl)ethyl)amino)-1,2-dihydroquinolin-6-yl)amino)nicotinonitrile]									1.4 x10^-6 cms^-1	249 µM (≈ 108 µg/mL)	1.4
Cn1c(=O)cc(NC(C)(C)c2ncccn2)c2cc(Nc3ccnc(Cl)c3C#N)ccc21 [Compound 13g, 2-Chloro-4-((1-methyl-2-oxo-4-((2-(pyrimidin-2-yl)propan-2-yl)amino)-1,2-dihydroquinolin-6-yl)amino)nicotinonitrile]									1.8 x10^-6 cms^-1	15 µM (≈ 6.69 µg/mL)	1.9
Cc1cnc(C(C)Nc2cc(=O)n(C)c3ccc(Nc4ccnc(Cl)c4C#N)cc23)nc1 (stereo not drawn) [Compound 24a, 2-Chloro-4-((1-methyl-4-((1-(5-methylpyrimidin-2-yl)ethyl)amino)-2-oxo-1,2-dihydroquinolin-6-yl)amino)nicotinonitrile]		7.22 and 7.05	7.14 and 7.136	7.15 and 7.14	7.14	7.15			5.6 x10^-6 cms^-1	31 µM (≈ 13.8 µg/mL)	
